Here are results for 5 molecules from PMC12693419, “Design, Synthesis, Biological Evaluation, and In Silico Studies of Novel Multitarget Cinnamic Acid Hybrids” (Molecules, 2025).

Series [1] is described as follows: In vitro inhibition of linoleic acid lipid peroxidation (AAPH). Particulars: 100 μM; anti-lipid peroxidation. From the text:
In the present study, the aim was to evaluate the anti-lipid peroxidation activities of the synthesized compounds 5a–i, 6a–i, 9a–i, and 11 and compare their efficacy to that of Trolox, a well-known antioxidant. Using the water-soluble compound 2,2′-azobis(2-amidinopropane) hydrochloride (AAPH), peroxyl radicals are generated through spontaneous thermal decomposition in vitro. This experimental setup imitated the lipid peroxidation processes occurring in cells due to radical activity allowing the investigation of the effectiveness of the tested compounds under conditions resembling cellular oxidative stress.
An in vitro assay was performed following previously established protocols. The compound 2,2′-Azobis(2-methylpropionamidine) dihydrochloride (AAPH) was used as a controlled source of thermally generated alkylperoxy free radicals. The formation of conjugated diene hydroperoxides through the oxidation of sodium linoleate in an aqueous dispersion at 37 °C was measured by monitoring absorbance at 234 nm. The results were compared with the reference compound, Trolox (93%) (Table 6).

Series [2] has as its target T1, soybean lipoxygenase isoenzyme-1 (SLOX-1) (Glycine max, UniProt P08170).
T1 construct: purchased Merck and Sigma-Aldrich
T1 sequence (P08170 1-839): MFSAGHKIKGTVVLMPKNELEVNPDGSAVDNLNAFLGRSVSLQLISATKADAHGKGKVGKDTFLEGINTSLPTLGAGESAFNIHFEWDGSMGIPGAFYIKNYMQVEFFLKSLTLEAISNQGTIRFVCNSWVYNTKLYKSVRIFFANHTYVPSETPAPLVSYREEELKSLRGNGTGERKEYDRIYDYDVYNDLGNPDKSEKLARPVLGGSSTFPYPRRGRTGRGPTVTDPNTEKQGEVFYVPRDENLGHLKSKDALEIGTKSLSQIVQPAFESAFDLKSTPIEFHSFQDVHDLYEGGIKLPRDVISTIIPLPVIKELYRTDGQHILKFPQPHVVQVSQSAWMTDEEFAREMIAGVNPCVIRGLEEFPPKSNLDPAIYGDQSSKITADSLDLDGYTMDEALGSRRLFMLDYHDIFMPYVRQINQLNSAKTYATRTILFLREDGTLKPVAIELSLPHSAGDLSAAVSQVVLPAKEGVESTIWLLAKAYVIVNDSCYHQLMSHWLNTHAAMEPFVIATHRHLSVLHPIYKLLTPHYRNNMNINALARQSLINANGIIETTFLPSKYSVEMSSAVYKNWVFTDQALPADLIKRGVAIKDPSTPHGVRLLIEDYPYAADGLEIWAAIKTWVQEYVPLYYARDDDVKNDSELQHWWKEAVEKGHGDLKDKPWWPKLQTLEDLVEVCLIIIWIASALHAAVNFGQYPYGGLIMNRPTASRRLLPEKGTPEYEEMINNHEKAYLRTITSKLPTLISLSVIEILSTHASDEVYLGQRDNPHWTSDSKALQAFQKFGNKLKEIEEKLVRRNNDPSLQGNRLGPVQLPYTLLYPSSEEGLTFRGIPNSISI
Kind of series: In vitro inhibition of soybean lipoxygenase. In kind it is biochemical. The settings on record: for IC50: pH 9.0, read-out: LOX Inh. IC50. The method, then:
In vitro anti-LOX activities were evaluated using soybean lipoxygenase isoenzyme-1 (SLOX-1), a commonly used model for mammalian LOXs.
An in vitro study was conducted following a previously reported method. The tested compounds were dissolved in DMSO (100 µM) and incubated at room temperature with 0.1 mL of sodium linoleate as the substrate and 0.2 mL of soybean lipoxygenase solution in Tris-HCl buffer (pH 9.0).

The next series deals with T2, bovine serum albumin (Bos taurus, UniProt P02769).
T2 construct: bovine serum albumin solution (fraction V); purchased Merck and Sigma-Aldrich; host or cells: bovine serum (fraction V)
T2 sequence (P02769 25-607): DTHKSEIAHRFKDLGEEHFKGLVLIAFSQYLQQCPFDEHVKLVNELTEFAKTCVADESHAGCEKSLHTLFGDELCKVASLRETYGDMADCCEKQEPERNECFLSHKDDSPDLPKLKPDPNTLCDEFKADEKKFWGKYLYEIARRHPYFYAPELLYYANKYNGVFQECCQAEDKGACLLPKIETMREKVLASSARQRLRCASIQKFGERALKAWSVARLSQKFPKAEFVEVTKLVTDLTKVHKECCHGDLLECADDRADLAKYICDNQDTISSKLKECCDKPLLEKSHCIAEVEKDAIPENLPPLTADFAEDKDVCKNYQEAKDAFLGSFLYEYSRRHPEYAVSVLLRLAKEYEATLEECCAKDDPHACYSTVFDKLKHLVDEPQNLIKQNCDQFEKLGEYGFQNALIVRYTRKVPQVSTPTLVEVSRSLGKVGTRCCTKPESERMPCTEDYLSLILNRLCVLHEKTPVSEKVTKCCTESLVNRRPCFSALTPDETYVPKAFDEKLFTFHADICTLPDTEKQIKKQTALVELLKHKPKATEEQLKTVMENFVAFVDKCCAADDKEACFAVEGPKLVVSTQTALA
Kind of series: In vitro inhibition of albumin denaturation. Particulars: heat denaturation, 60 °C 10 min. How it is done:
The ability of a compound to inhibit the thermal denaturation of albumin is considered an indicator of anti-inflammatory activity. Heat exposure simulates conditions of cellular stress or inflammation, during which protein and tissue damage occur. Certain substances can protect proteins from denaturation upon heating by stabilizing their structure and preventing aggregation and precipitation.
Inhibition of albumin denaturation was measured following the reported method. In a test tube, 1 mL of bovine serum albumin solution (fraction V, 1% w/v in phosphate buffer, pH 7.4) and 100 μL of the test compound solution were added sequentially. The mixture was incubated at 37 °C for 15 min, followed by heating at 60 °C for 10 min. After cooling to room temperature, the absorbance was measured at 660 nm. DMSO was used as the blank, and the results were compared to acetylsalicylic acid, which served as the reference compound (Table 6).

The test system of a further series is HeLa cells. Nature of the series: MTT viability assay. The series is classed as cell-based. The settings on record: Homo sapiens; for EC50: 48 h. The method, then:
(§1) HeLa, MCF-7, U251, U87, MDA-MB-435, and MDA-MB-231 cancer cell lines were maintained in incubators at 37 °C with 5% CO2 in DMEM medium supplemented with 10% (v/v) fetal bovine serum (FBS) and antibiotics/antimycotics. All cell lines used in this study originate from the Laboratory of Biochemistry, Department of Chemistry, Aristotle University of Thessaloniki. They are low-passage, mycoplasma-free cancer cell lines that have been extensively used over the past 25 years in numerous studies across various fields of cancer research, including drug cytotoxicity testing.
(§2) All cell lines tested were seeded in 96-well plates at a concentration of 6 × 10^3 cells per well, except HeLa, which were seeded at 3 × 10^3 cells per well. The day after, cells were exposed to increasing concentrations of the compounds for 48 h. Cell viability was determined using the 3-(4,5-dimethylthiazol-2-yl)-2,5-diphenyltetrazolium bromide (MTT) assay, a colorimetric assessment of cellular metabolic activity as described previously. Absorbance values from treated samples were normalized to those of untreated controls, which were assigned to a 100% viability value.
(Tetrazolium assays rely on reduction of a dye to a coloured formazan, in cell work by metabolically active cells.)

For the next series, the system named is MCF-7 cells. Nature of the series: MTT viability assay. In kind it is cell-based. The settings on record: Homo sapiens, MCF7, 48 h. The method, then:
as §1, §2

The target of the next series is T3, ovine COX-2 (Ovis aries, UniProt P79208).
T3 sequence (P79208 17-603): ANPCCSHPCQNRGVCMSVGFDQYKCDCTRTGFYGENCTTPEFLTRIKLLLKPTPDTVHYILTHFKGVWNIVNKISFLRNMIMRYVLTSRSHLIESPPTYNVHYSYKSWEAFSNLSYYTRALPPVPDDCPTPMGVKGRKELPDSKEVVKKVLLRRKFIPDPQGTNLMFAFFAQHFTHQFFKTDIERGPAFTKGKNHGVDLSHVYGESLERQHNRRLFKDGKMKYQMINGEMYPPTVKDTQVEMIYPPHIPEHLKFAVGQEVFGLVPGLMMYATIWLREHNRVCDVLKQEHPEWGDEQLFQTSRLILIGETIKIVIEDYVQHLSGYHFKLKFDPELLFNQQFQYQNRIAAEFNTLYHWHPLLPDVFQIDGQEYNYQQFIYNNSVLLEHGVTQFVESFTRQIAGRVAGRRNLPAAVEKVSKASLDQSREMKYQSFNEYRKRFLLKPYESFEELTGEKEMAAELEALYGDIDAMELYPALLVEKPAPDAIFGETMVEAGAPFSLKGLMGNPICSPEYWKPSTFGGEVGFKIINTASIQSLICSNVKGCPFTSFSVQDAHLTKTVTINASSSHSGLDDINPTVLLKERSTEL
Kind of series: In vitro inhibition of ovine cyclooxygenase-2.

Series [3] is described as follows: In vitro determination of NO release with Griess reagent. Particulars: 100 μM, L-cysteine, pH 7.4, 37 °C, 60 min. From the text: This assay evaluates the ability of nitrate esters to release nitric oxide (NO). First, sodium nitroprusside (SNP) reacts with the thiol compound, cysteine, which serves as a reducing agent (Scheme 5). The thiol donates electrons, facilitating the breakdown of the nitroprusside complex. Afterwards, the reaction leads to the formation of intermediate complexes, such as nitrosothiol species and the decomposition of these intermediates results in the release of nitric oxide (NO). According to the literature, measurements are conducted both in the presence and absence of the thiol agent, cysteine. No significant difference was observed between the two experimental conditions, and the results were reproducible. Sodium nitroprusside (SNP) was used as the reference compound [65].
The compounds (from a 10 mM stock solution in DMSO, final concentration 100 μM) are added (20 μL) to each test tube. Then, 2 mL of phosphate buffer solution (pH 7.4) is added. L-cysteine, used as the thiol agent, is added to the mixture at a final concentration of 0.5 mM. The solution is incubated at 37 °C for 60 min, after which 1 mL is removed and mixed with 250 μL of Griess reagent (4 g sulfanilamide, 0.2 g N-(1-naphthyl)-ethylenediamine dihydrochloride, and 10 mL of H3PO4 solution, final volume adjusted to 100 mL). The mixture is allowed to stand for 10 min at room temperature, and the absorbance of the produced compound is measured at 540 nm. Sodium nitroprusside (SNP) is used as the reference compound. The results are presented as the release of NO2^− (% NO2^− (mol/mol)) induced by the compounds in the presence of L-cysteine (Table 6).
(In general: Griess reagent forms a coloured azo dye with nitrite.)

The target in another series is T4, COX-1 (Homo sapiens, UniProt P23219).
T4 construct: purchased Merck and Sigma-Aldrich
T4 sequence (P23219 24-599): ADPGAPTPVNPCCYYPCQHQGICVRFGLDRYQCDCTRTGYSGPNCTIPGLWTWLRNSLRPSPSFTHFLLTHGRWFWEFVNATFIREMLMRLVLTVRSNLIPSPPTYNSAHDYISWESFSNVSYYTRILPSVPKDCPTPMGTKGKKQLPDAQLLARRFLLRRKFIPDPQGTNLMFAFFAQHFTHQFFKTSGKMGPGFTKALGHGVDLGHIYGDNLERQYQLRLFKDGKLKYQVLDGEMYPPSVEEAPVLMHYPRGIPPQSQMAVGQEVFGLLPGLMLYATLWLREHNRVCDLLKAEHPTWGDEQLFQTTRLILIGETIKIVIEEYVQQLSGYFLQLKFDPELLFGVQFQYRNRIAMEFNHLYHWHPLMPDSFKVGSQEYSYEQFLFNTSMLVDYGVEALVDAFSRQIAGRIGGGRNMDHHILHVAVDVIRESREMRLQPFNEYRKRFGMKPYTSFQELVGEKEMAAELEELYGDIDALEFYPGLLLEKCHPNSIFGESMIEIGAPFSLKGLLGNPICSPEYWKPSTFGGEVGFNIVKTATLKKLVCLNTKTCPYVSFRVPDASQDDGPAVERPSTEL
Kind of series: In vitro inhibition of COX-1. The series is classed as biochemical. From the text:
Enzyme inactivation can occur due to the accumulation of hydroperoxides formed from arachidonic acid or other fatty acid substrates. In order to prevent this in the in vitro experiment used for testing COX inhibition activity of the new molecules, a co-substrate like N,N,N′,N′-tetramethyl-p-phenylenediamine (TMPD) is included, as it undergoes co-oxidation by PGG2. The oxidized TMPD has a maximum absorbance at 590 nm. COX enzymes also depend on heme (Fe^3+-protoporphyrin IX) as a cofactor, which can dissociate during purification. To ensure maximum enzyme activity, heme is added to the reaction mixture during the in vitro assay for ovine COX-2 inhibition and COX-1 inhibition.
Cyclooxygenase (COX) activity was measured using arachidonic acid (AA) as the substrate and N,N,N′,N′-tetramethylphenylenediamine (TMPD) as the co-substrate following the reported method. […] The substrate oxidation was monitored at room temperature by recording the increase in absorbance at 590 nm. Absorbance due to the spontaneous oxidation of TMPD was subtracted from the initial oxidation rate observed in the presence of AA. The inhibitory activity of the test compounds at a concentration of 100 μM was evaluated after a 6-min pre-incubation with the enzyme in the presence of heme and TMPD.

As a reminder, the IC50 is the midpoint of a concentration-inhibition curve. In general, EC50 refers to the concentration giving half of the maximal effect. Low readings indicate an effect from little substance, high ones a need for much substance. As a reminder, the inhibition is the share of the control response that was lost under treatment.

Description for ovine COX-2: In order to prevent this in the in vitro experiment used for testing COX inhibition activity of the new molecules, a co-substrate like N,N,N′,N′-tetramethyl-p-phenylenediamine (TMPD) is included, as it undergoes co-oxidation by PGG2. The oxidized TMPD has a maximum absorbance at 590 nm. […] To ensure maximum enzyme activity, heme is added to the reaction mixture during the in vitro assay for ovine COX-2 inhibition and COX-1 inhibition [63].
The in vitro COX-2 inhibitory activity was assessed using arachidonic acid (AA) as a substrate and N,N,N′,N′-tetramethyl-p-phenylenediamine (TMPD) as a co-substrate in a Tris-HCl buffer (pH 8.5), following the reported method [89]. To the test tube, 10 µL of the compound dissolved in DMSO was added to a mixture containing 730 µL of Tris-HCl buffer (pH 8.5), 50 µL of heme, 10 µL of COX-2 enzyme, and 100 µL of TMPD. The absorbance was measured at 590 nm. […] A blank determination was conducted as a negative control.

Regarding `O=C(OCc1c(-c2ccccc2)no[n+]1[O-])/C(=C/c1ccccc1)c1ccccc1` [Compound 9g, (E)-3-(((2,3-Diphenylacryloyl)oxy)methyl)-4-phenyl-1,2,5-oxadiazole 2-oxide], the “AAPH Inh. at 100 μΜ” value in series [1] amounted to 90%. Moreover, the IC50 in series [2] came to 55.5 µM. Moreover, at bovine serum albumin, the “Albumin (inhibition of albumin denaturation)” value was “no”. The EC50 with HeLa cells is 46.6 µM; in the series on MCF-7 cells it was > 100 µM. Also, on ovine COX-2, the “COX-2 Inh. IC50” value is “no”. Also, the “%NO2^− Release mol/mol at 100 μΜ” value in series [3] amounted to 3%.
Regarding `COc1cccc2c1C(=O)c1c(O)c3c(c(O)c1C2=O)C[C@@](O)(C(=O)CO)C[C@@H]3O[C@H]1C[C@H](N)[C@H](O)[C@H](C)O1` [doxorubicin, reference compound], the 50% inhibitory concentration (IC50) with HeLa cells (48 h of exposure, read-out: IC50 in HeLa cells (positive control)) is ~0.5 µM.
Consider `O=C(OCc1c(-c2ccccc2)no[n+]1[O-])/C(=C/c1cccc2ccccc12)c1ccccc1` [Compound 9h, (E)-3-(((3-(Naphthalen-1-yl)-2-phenylacryloyl)oxy)methyl)-4-phenyl-1,2,5-oxadiazole 2-oxide], for which the “AAPH Inh. at 100 μΜ” value in series [1] is recorded as 94.5%. Moreover, the half-inhibitory concentration (IC50) in series [2] was 10 µM. The “Albumin (inhibition of albumin denaturation)” value on bovine serum albumin is on record as “no”. At ovine COX-2, the “COX-2 Inh. IC50” value was “no”. In addition, the “%NO2^− Release mol/mol at 100 μΜ” value in series [3] is given as “no”.
On to `O=C(OCc1c(-c2ccccc2)no[n+]1[O-])/C(=C/c1cccs1)c1ccccc1` [Compound 9i, (E)-4-Phenyl-3-(((2-phenyl-3-(thiophen-2-yl)acryloyl)oxy)methyl)-1,2,5-oxadiazole 2-oxide], for which the “AAPH Inh. at 100 μΜ” value in series [1] is reported as “no”. Besides, in series [2] (pH 9.0), the “LOX Inh. IC50” value is “no”. For the same molecule, the “Albumin (inhibition of albumin denaturation)” value on bovine serum albumin was “no”. For the same molecule, the EC50 in the series with HeLa cells is 56 µM; in the series on MCF-7 cells it was > 100 µM. On ovine COX-2, the IC50 is 70 µM. Further, at COX-1, testing at 100 µM gave an inhibition of 49%.
For the molecule `C/C(=N\O)c1ccc(NC(=O)COC(=O)C=Cc2ccccc2)cc1` [Compound 6a, 2-((4-((E)-1-(Hydroxyimino)ethyl)phenyl)amino)-2-oxoethyl cinnamate], the “AAPH Inh. at 100 μΜ” value in series [1] turned out to be 50.2%. The 50% inhibitory concentration (IC50) in series [2] stood at 50 µM; against ovine COX-2 it was 100 µM. Also, the “Albumin (inhibition of albumin denaturation)” value on bovine serum albumin is “no”. Moreover, in series [3], the “%NO2^− Release mol/mol at 100 μΜ” value is “no activity and no”.
